# According to patent publication US20050009840A1 (SUGEN, INC., priority 2003, published 2005):
# Structures can show the parent of a compound that is named as a salt.
# Target: T1, Met kinase domain (GST fusion protein) (Homo sapiens, UniProt P08581)
# T1 construct: Purified GST fusion protein containing the Met kinase domain
# Assay: Met transphosphorylation assay (ELISA, poly(glu-tyr) substrate);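 further: Cell-free ELISA with plate-bound poly(Glu:Tyr 4:1) phosphorylated by GST-fused Met kinase domain plus ATP and Mn2+, phosphotyrosine detected by anti-phosphotyrosine antibody with HRP and ABTS read-out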
# Assay type: biochemical
# Conditions: read-out: Met IC50
# T1 sequence (P08581 1078-1345 limits assumed): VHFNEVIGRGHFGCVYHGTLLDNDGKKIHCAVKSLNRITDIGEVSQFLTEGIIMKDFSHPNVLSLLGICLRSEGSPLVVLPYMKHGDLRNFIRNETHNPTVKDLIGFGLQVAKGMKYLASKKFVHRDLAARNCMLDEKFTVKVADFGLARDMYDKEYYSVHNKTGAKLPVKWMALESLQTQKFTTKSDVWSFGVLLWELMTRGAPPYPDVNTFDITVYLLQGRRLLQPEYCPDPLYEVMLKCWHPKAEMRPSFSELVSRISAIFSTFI
row,Compound,IC50
1,"CC(Oc1nc(-c2ccc(C(=O)N3CC[C@@H](N)C3)cc2)cnc1N)c1c(Cl)cccc1Cl (stereo partly drawn) [II-164, (4-{5-Amino-6-[1-(2,6-dichloro-phenyl)-ethoxy]-pyrazin-2-yl}-phenyl)-((R)-3-aminopyrrolidin-1-yl)-methanone]",150 nM
2,"CC(Oc1nc(-c2ccc(C(=O)N3CC[C@H](N)C3)cc2)cnc1N)c1c(Cl)cccc1Cl (stereo partly drawn) [II-165, (4-{5-Amino-6-[1-(2,6-dichloro-phenyl)-ethoxy]-pyrazin-2-yl}-phenyl)-((S)-3-aminopyrrolidin-1-yl)-methanone hydrogen chloride]",100 nM
3,"CC(Oc1nc(-c2ccc(C(=O)NCCN3CCCC3)cc2)cnc1N)c1c(Cl)cccc1Cl (stereo not drawn) [II-166, 4-{5-Amino-6-[1-(2,6-dichloro-phenyl)-ethoxy]-pyrazin-2-yl}-N-(2-pyrrolidin-1-yl-ethyl)-benzamide]",110 nM
4,"CC(Oc1nc(-c2ccc(C(=O)NCCCN3CCCC3)cc2)cnc1N)c1c(Cl)cccc1Cl (stereo not drawn) [II-167, 4-{5-Amino-6-[1-(2,6-dichloro-phenyl)-ethoxy]-pyrazin-2-yl}-N-(3-pyrrolidin-1-yl-propyl)-benzamide]",220 nM
5,"CC(Oc1nc(-c2cccc(C(=O)NC3CCN(C)CC3)c2)cnc1N)c1c(Cl)cccc1Cl (stereo not drawn) [II-169, 3-{5-Amino-6-[1-(2,6-dichloro-phenyl)-ethoxy)-pyrazin-2-yl}-N-(1-methyl-piperidin-4-yl)-benzamide]",180 nM
6,"CC(Oc1nc(-c2cccc(C(=O)NCCN3CCCC3)c2)cnc1N)c1c(Cl)cccc1Cl (stereo not drawn) [II-170, 3-{5-Amino-6-[1-(2,6-dichloro-phenyl)-ethoxy]-pyrazin-2-yl}-N-(2-pyrrolidin-1-yl-ethyl)-benzamide]",330 nM
7,"CC(Oc1nc(-c2cccc(C(=O)N3C[C@@H](C)N[C@@H](C)C3)c2)cnc1N)c1c(Cl)cccc1Cl (stereo partly drawn) [II-171, (3-{5-Amino-6-[1-(2,6-dichloro-phenyl)-ethoxy]-pyrazin-2-yl}-phenyl)-((3R,5S)-3,5-dimethyl-piperazin-1-yl)-methanone]",360 nM
8,"CC(Oc1nc(-c2cccc(C(=O)NCCN3CCOCC3)c2)cnc1N)c1c(Cl)cccc1Cl (stereo not drawn) [II-172, 3-{5-Amino-6-[1-(2,6-dichloro-phenyl)-ethoxy]-pyrazin-2-yl}-N-(2-morpholin-4-yl-ethyl)-benzamide]",480 nM
9,"CC(Oc1nc(-c2cccc(C(=O)N3CCC[C@H]3CN3CCCC3)c2)cnc1N)c1c(Cl)cccc1Cl (stereo partly drawn) [II-173, (3-{5-Amino-6-[1-(2,6-dichloro-phenyl)-ethoxy]-pyrazin-2-yl}-phenyl)-((S)-2-pyrrolidin-1-ylmethyl-pyrrolidin-1-yl)-methanone]",180 nM
10,"CC(Oc1nc(-c2cccc(C(=O)N3CCC(N4CCCC4)CC3)c2)cnc1N)c1c(Cl)cccc1Cl (stereo not drawn) [II-174, (3-{5-Amino-6-[1-(2,6-dichloro-phenyl)-ethoxy]-pyrazin-2-yl}-phenyl)-(4-pyrrolidin-1-yl-piperidin-1-yl)-methanone]",170 nM
11,"CC(=O)N1CCN(CCNC(=O)c2ccc(-c3cnc(N)c(OC(C)c4c(Cl)cccc4Cl)n3)cc2)CC1 (stereo not drawn) [II-175, N-[2-(4-Acetyl-piperazin-1-yl)-ethyl]-4-{5-amino-6-[1-(2,6-dichloro-phenyl)-ethoxy]-pyrazin-2-yl}-benzamide]",280 nM
12,"CC(=O)N1CCN(CCNC(=O)c2cccc(-c3cnc(N)c(OC(C)c4c(Cl)cccc4Cl)n3)c2)CC1 (stereo not drawn) [II-176, N-[2-(4-Acetyl-piperazin-1-yl)-ethyl]-3-{5-amino-6-[1-(2,6-dichloro-phenyl)-ethoxy]-pyrazin-2-yl}-benzamide]",350 nM
13,"CC(Oc1nc(-c2cccc(C(=O)N3CCC[C@@H]3CN3CCCC3)c2)cnc1N)c1c(Cl)cccc1Cl (stereo partly drawn) [II-177, (3-{5-Amino-6-[1-(2,6-dichloro-phenyl)-ethoxy]-pyrazin-2-yl}-phenyl)-((R)-2-pyrrolidin-1-ylmethyl-pyrrolidin-1-yl)-methanone]",330 nM
14,"CC(Oc1nc(-c2cccc(C(=O)NCCCN3CCCC3)c2)cnc1N)c1c(Cl)cccc1Cl (stereo not drawn) [II-178, 3-{5-Amino-6-[1-(2,6-dichloro-phenyl)-ethoxy]-pyrazin-2-yl}-N-(3-pyrrolidin-1-yl-propyl)-benzamide]",340 nM
15,"CC(Oc1nc(-c2cccc(C(=O)N3CC[C@H](N)C3)c2)cnc1N)c1c(Cl)cccc1Cl (stereo partly drawn) [II-179, (3-{5-Amino-6-[1-(2,6-dichloro-phenyl)-ethoxy]-pyrazin-2-yl}-phenyl)-((S)-3-amino-pyrroldin-1-yl)-methanone]",110 nM
16,"CC(Oc1nc(-c2cccc(C(=O)N3CC[C@@H](N)C3)c2)cnc1N)c1c(Cl)cccc1Cl (stereo partly drawn) [II-180, (3-{5-Amino-6-[1-(2,6-dichloro-phenyl)-ethoxy]-pyrazin-2-yl}-phenyl)-((R)-3-amino-pyrrolidin-1-yl)-methanone hydrochloride salt]",180 nM
17,"CC(Oc1nc(-c2cccc(C(=O)N3CCN(C)CC3)c2)cnc1N)c1c(Cl)cccc1Cl (stereo not drawn) [II-181, (3-{5-Amino-6-[1-(2,6-dichloro-phenyl)-ethoxy]-pyrazin-2-yl}-phenyl)-(4-methyl-piperazin-1-yl)-methanone]",250 nM
18,"CC(Oc1nc(-c2ccc(NC(=O)NCCN3CCOCC3)cc2)cnc1N)c1c(F)ccc(F)c1Cl (stereo not drawn) [II-182, 1-(4-{5-Amino-6-[1-(2-chloro-3,6-difluoro-phenyl)-ethoxy]-pyrazin-2-yl}-phenyl)-3-(2-morpholin-4-yl-ethyl)-urea]",180 nM
19,"CC(Oc1nc(-c2ccc(NC(=O)N3CCC[C@@H]3CN3CCCC3)cc2)cnc1N)c1c(F)ccc(F)c1Cl (stereo partly drawn) [II-183, (R)-2-Pyrrolidin-1-ylmethyl-pyrrolidin-1-carboxylic acid (4-{5-amino-6-[1-(2-chloro-3,6-difluoro-phenyl)-ethoxy]-pyrazin-2-yl}-phenyl)-amide]",210 nM
20,"CC(Oc1nc(-c2ccc(NC(=O)NCCN3CCCC3)cc2)cnc1N)c1c(F)ccc(F)c1Cl (stereo not drawn) [II-184, 1-(4-{5-Amino-6-[1-(2-chloro-3,6-difluoro-phenyl)-ethoxy]-pyrazin-2-yl}-phenyl)-3-(2-pyrrolidin-1-yl-ethyl)-urea]",180 nM
21,"CC(Oc1nc(-c2ccc(NC(=O)N3CCN(C)CC3)cc2)cnc1N)c1c(F)ccc(F)c1Cl (stereo not drawn) [II-185, 4-Methyl-piperazin-1-carboxylic acid (4-{5-amino-6-[1-(2-chloro-3,6-difluoro-phenyl)-ethoxy]-pyrazin-2-yl}-phenyl)-amide]",100 nM
22,"CC(Oc1nc(-c2ccc(NC(=O)NCCO)cc2)cnc1N)c1c(F)ccc(F)c1Cl (stereo not drawn) [II-186, 1-(4-{5-Amino-6-[1-(2-chloro-3,6-difluoro-phenyl)-ethoxy]-pyrazin-2-yl}-phenyl)-3-(2-hydroxy-ethyl)-urea]",210 nM
23,"CC(Oc1nc(-c2ccc(NC(=O)N3CC[C@H](N)C3)cc2)cnc1N)c1c(F)ccc(F)c1Cl (stereo partly drawn) [II-187, (S)-3-Amino-pyrrolidine-1-carboxylic acid (4-{5-amino-6-[1-(2-chloro-3,6-difluoro-phenyl)-ethoxy]-pyrazin-2-yl}-phenyl)-amide]",82 nM
24,"CC(Oc1nc(-c2ccc(NC(=O)NC3CCN(C)CC3)cc2)cnc1N)c1c(F)ccc(F)c1Cl (stereo not drawn) [II-188, 1-(4-{5-Amino-6-[1-(2-chloro-3,6-difluoro-phenyl)-ethoxy]-pyrazin-2-yl}-phenyl)-3-(1-methyl-piperidin-4-yl)-urea]",54 nM
